We go through 20 compounds from US20240025884A1 (Dong-A ST Co., Ltd., priority 2022, published 2024).

This test has as its target GCN2 (Homo sapiens (Human), UniProt Q9P2K8). The experiment in a line: GCN2 Biochemical Assay (TR-FRET, GFP-eIF2S1 substrate phosphorylation). Conditions: read-out: IC50 (GCN2 Inhibitory Activity). Here is the method: Experimental Example 1: GCN2 Biochemical Assay
An inhibitory effect of the inventive compound on GCN2 was identified as follows.
384-well (Greiner #784075) (or 1536-well [Greiner #782075]) plates containing 60 nl (or 20 nl for 1536-well) of compound in 100% DMSO (10 concentrations serially diluted 3.16-fold) were prepared. Two copies of plates were used—one for the GCN2 assay and a second for an artifact plate. Working reagents were prepared as follows—reaction buffer: Tris pH 7.5 20 mM, MgCl2 5 mM, DTT 1 mM, Brij-35 0.005%, EGTA 0.5 mM in water; 2× enzyme solution: GCN2 (produced in-house) 1.6 nM in reaction buffer; 2× substrate solution: GFP-eIFS1 (Thermo Fisher Scientific, PV4809) 50 nM, ATP 0.2 mM, tRNA 0.4 mg/ml in reaction buffer; p-GFP-eIF2S1 (artifact) solution: p-GFP-eIFS1 (produced by incubation of 100 nM GFP-eIF2S1 in reaction buffer with 100 uM ATP and 1 nM PERK KD enzyme for 3 hr at room temperature) 2 nM in reaction buffer; 3× stop/antibody solution: p-GFP-EIF2S1 Th-Ab (Thermo Fisher Scientific, PV4816) 6 nM, AZ13933939 3 uM, BSA 3% in reaction buffer. Reagents were loaded onto a liquid dispenser (Certus FLEX, Trajan Scientific and Medical), and 3 ul (1 ul for 1536-well) of 2× enzyme solution, followed by 3 ul (1 ul for 1536-well) of 2× substrate solution was added to the plates. When small numbers of plates were processed, the enzyme solution was added first to all plates, then the valve used for the substrate solution was primed immediately prior to use. Plates were tapped or spun 1 min/1K/RT to ensure proper mixing, followed by incubation at room temperature for 70 mins, covered/stacked in the dark. For the artifact plate, 6 ul of p-GFP-eIF2S1 solution was added prior to adding the stop/antibody solution. 3 ul (1 ul for 1536-well) of 3× stop/antibody solution was added to the plates, followed by a spin-down for 1 min/1K/RT, and incubation for 2-3 hr, sealed or covered with lids in the dark at room temperature. Plates were read on a plate reader (PHERAstar FSX, BMF Labtech) at Ex 340/Em 490/Em 520 nm.
In general terms: In TR-FRET formats the signal depends on donor and acceptor labels being close together.

Where only a bound is given, the exact number is not on record here.

Chain of GCN2 (Q9P2K8 whole entry): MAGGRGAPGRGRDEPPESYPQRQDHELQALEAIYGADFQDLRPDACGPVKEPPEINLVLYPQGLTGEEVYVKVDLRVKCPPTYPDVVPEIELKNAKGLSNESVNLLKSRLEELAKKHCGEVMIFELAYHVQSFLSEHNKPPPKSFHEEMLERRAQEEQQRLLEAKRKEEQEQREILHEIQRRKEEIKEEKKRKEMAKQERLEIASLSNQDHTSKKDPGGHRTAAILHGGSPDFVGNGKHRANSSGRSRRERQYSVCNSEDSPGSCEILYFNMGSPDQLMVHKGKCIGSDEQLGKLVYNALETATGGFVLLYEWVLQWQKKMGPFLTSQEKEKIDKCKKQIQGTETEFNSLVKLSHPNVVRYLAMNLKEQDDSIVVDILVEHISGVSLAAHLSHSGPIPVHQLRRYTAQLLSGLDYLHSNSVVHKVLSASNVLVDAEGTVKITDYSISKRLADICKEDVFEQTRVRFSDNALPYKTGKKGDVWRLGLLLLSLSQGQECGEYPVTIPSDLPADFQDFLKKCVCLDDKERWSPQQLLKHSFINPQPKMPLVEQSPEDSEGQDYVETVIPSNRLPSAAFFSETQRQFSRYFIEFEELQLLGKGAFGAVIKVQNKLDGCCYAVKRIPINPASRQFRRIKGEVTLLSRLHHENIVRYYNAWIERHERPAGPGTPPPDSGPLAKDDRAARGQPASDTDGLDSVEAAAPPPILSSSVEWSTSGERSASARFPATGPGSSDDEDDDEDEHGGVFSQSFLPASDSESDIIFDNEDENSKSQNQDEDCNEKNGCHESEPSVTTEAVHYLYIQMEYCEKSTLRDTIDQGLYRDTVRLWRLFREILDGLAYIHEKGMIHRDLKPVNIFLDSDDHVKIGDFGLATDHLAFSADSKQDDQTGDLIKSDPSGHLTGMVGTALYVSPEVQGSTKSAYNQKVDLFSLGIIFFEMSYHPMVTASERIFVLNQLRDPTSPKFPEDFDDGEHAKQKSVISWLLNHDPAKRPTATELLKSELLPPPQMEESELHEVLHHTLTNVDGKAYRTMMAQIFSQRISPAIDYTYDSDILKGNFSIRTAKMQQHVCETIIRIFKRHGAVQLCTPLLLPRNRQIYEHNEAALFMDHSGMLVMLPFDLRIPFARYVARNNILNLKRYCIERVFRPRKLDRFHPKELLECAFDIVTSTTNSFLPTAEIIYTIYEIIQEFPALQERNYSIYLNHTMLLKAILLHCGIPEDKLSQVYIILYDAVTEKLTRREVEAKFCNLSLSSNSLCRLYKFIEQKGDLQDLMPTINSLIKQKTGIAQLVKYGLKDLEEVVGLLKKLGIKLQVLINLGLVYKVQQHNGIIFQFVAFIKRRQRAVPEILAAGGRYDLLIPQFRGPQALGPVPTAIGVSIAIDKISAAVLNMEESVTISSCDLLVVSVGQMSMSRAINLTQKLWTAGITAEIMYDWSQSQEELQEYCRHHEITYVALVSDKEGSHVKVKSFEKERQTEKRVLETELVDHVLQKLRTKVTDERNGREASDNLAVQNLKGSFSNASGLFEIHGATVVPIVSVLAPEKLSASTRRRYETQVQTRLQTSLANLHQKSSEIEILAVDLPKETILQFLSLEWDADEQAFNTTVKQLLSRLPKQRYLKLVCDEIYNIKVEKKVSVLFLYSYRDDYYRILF

One may read the IC50 as the concentration needed to halve the response being measured. Turning to `COc1ncccc1-c1cccc2c1CN(c1cccc3c(-c4nc(Nc5cc(C)n(C)n5)ncc4C)c[nH]c13)C2=O` [Example 435, 2-(3-(2-((1,5-dimethyl-1H-pyrazol-3-yl)amino)-5-methylpyrimidin-4-yl)-1H-indol-7-yl)-4-(2-methoxypyridin-3-yl)isoindolin-1-one], the concentration for half-maximal inhibition (IC50) was under 10 nM.
Next, `Cc1cnc(Nc2cc(C)n(C)n2)nc1-c1c[nH]c2c(NC(=O)CN3CC[C@H](Oc4cc(NC5CC5)ncn4)C3)cccc12` [Example 151, (S)-2-(3-((6-(cyclopropylamino)pyrimidin-4-yl)oxy)pyrrolidin-1-yl)-N-(3-(2-((1,5-dimethyl-1H-pyrazol-3-yl)amino)-5-methylpyrimidin-4-yl)-1H-indol-7-yl)acetamide]: under 10 nM; `COC(=O)c1ccccc1-c1cccc2c1CN(c1cccc3c(-c4nc(Nc5cc(C)n(C)n5)ncc4C)c[nH]c13)C2=O` [Example 463, methyl 2-(2-(3-(2-((1,5-dimethyl-1H-pyrazol-3-yl)amino)-5-methylpyrimidin-4-yl)-1H-indol-7-yl)-1-oxoisoindolin-4-yl)benzoate]: 100 to 1000 nM; `Cc1cnc(Nc2cc(C)n(C)n2)nc1-c1c[nH]c2c(NC(=O)CN3CC[C@H](Oc4ccccn4)C3)cccc12` [Example 73, (S)-N-(3-(2-((1,5-dimethyl-1H-pyrazol-3-yl)amino)-5-methylpyrimidin-4-yl)-1H-indol-7-yl)-2-(3-(pyridin-2-yloxy)pyrrolidin-1-yl)acetamide]: 10 to 100 nM.
On to `Cc1cnc(Nc2cc(C)n(C)n2)nc1-c1c[nH]c2c(N3C(=O)c4cccnc4C3=O)cccc12` [Example 265, 6-(3-(2-((1,5-dimethyl-1H-pyrazol-3-yl)amino)-5-methylpyrimidin-4-yl)-1H-indol-7-yl)-5H-pyrrolo[3,4-b]pyridine-5,7(6H)-dione], for which the IC50 was under 10 nM.
As for `Cc1cnc(Nc2cc(C)n(C)n2)nc1-c1c[nH]c2c(N3Cc4c(NC(=O)C5CC=CCC5)cccc4C3=O)cccc12` (centres unmarked) [Example 309, N-(2-(3-(2-((1,5-dimethyl-1H-pyrazol-3-yl)amino)-5-methylpyrimidin-4-yl)-1H-indol-7-yl)-1-oxoisoindolin-4-yl)cyclohex-3-ene-1-carboxamide], the 50% inhibitory concentration (IC50) lay within 10 to 100 nM.
Turning to `Cc1cnc(Nc2cc(C)n(C)n2)nc1-c1c[nH]c2c(N3Cc4c(cccc4-c4cnc(N(C)C)nc4)C3=O)cccc12` [Example 414, 2-(3-(2-((1,5-dimethyl-1H-pyrazol-3-yl)amino)-5-methylpyrimidin-4-yl)-1H-indol-7-yl)-4-(2-(dimethylamino)pyrimidin-5-yl)isoindolin-1-one], the half-maximal inhibitory concentration (IC50) is under 10 nM.
Next, `Cc1cnc(Nc2cc(C)n(C)n2)nc1-c1c[nH]c2c(N3Cc4c(-c5ccncc5)ccc([N+](=O)[O-])c4C3=O)cccc12` [Example 489, 2-(3-(2-((1,5-dimethyl-1H-pyrazol-3-yl)amino)-5-methylpyrimidin-4-yl)-1H-indol-7-yl)-7-nitro-4-(pyridin-4-yl)isoindolin-1-one]: under 10 nM; `Cc1cnc(Nc2cc(C)n(C)n2)nc1-c1c[nH]c2c(N3Cc4c(cccc4-c4ccc(N)nc4)C3=O)cccc12` [Example 420, 4-(6-aminopyridin-3-yl)-2-(3-(2-((1,5-dimethyl-1H-pyrazol-3-yl)amino)-5-methylpyrimidin-4-yl)-1H-indol-7-yl)isoindolin-1-one]: under 10 nM.
As for `Cc1cnc(Nc2cc(C)n(C)n2)nc1-c1c[nH]c2c(N3Cc4c(cccc4-c4ccccc4C(=O)O)C3=O)cccc12` [Example 458, 2-(2-(3-(2-((1,5-dimethyl-1H-pyrazol-3-yl)amino)-5-methylpyrimidin-4-yl)-1H-indol-7-yl)-1-oxoisoindolin-4-yl)benzoic acid], the IC50 lay in the range of 10 to 100 nM.
With `Cc1cnc(Nc2cc(C)n(C)n2)nc1-c1c[nH]c2c(N3Cc4cccc(N)c4C3=O)cccc12` [Example 276, 7-amino-2-(3-(2-((1,5-dimethyl-1H-pyrazol-3-yl)amino)-5-methylpyrimidin-4-yl)-1H-indol-7-yl)isoindolin-1-one], the IC50 lay in the range of 10 to 100 nM.
Next, `Cc1cnc(Nc2cc(C)n(C)n2)nc1-c1c[nH]c2c(NC(=O)CN3CC[C@H](C(=O)N4CC=CCC4)C3)cccc12` [Example 69, (S)-N-(3-(2-((1,5-dimethyl-1H-pyrazol-3-yl)amino)-5-methylpyrimidin-4-yl)-1H-indol-7-yl)-2-(3-(1,2,3,6-tetrahydropyridine-1-carbonyl)pyrrolidin-1-yl)acetamide]: 10 to 100 nM; `Cc1cnc(Nc2cc(C)n(C)n2)nc1-c1c[nH]c2c(N3Cc4ccc(Br)cc4C3=O)cccc12` [Example 284, 6-bromo-2-(3-(2-((1,5-dimethyl-1H-pyrazol-3-yl)amino)-5-methylpyrimidin-4-yl)-1H-indol-7-yl)isoindolin-1-one]: 10 to 100 nM; `Cc1cnc(Nc2cc(C)n(C)n2)nc1-c1c[nH]c2c(N3Cc4cccc(NCC5CC5)c4C3=O)cccc12` [Example 351, 7-((cyclopropylmethyl)amino)-2-(3-(2-((1,5-dimethyl-1H-pyrazol-3-yl)amino)-5-methylpyrimidin-4-yl)-1H-indol-7-yl)isoindolin-1-one]: 100 to 1000 nM.
Next, `Cc1cnc(Nc2cc(C)n(C)n2)nc1-c1c[nH]c2c(N3Cc4c(cccc4-c4ccc(C(N)=O)nc4)C3=O)cccc12` [Example 474, 5-(2-(3-(2-((1,5-dimethyl-1H-pyrazol-3-yl)amino)-5-methylpyrimidin-4-yl)-1H-indol-7-yl)-1-oxoisoindolin-4-yl)picolinamide]: under 10 nM.
Next, `Cc1cnc(Nc2cc(C)n(C)n2)nc1-c1c[nH]c2c(N(C)C(=O)CN3CC[C@H](Oc4ccncn4)C3)cccc12` [Example 21, (S)-N-(3-(2-((1,5-dimethyl-1H-pyrazol-3-yl)amino)-5-methylpyrimidin-4-yl)-1H-indol-7-yl)-N-methyl-2-(3-(pyrimidin-4-yloxy)pyrrolidin-1-yl)acetamide]: 10 to 100 nM; `Cc1cc(O[C@H]2CCN(CC(=O)Nc3cccc4c(-c5nc(Nc6cc(C)n(C)n6)ncc5C)c[nH]c34)C2)nc(NC2CC2)n1` [Example 236, (S)-2-(3-((2-(cyclopropylamino)-6-methylpyrimidin-4-yl)oxy)pyrrolidin-1-yl)-N-(3-(2-((1,5-dimethyl-1H-pyrazol-3-yl)amino)-5-methylpyrimidin-4-yl)-1H-indol-7-yl)acetamide]: under 10 nM; `Cc1cnc(Nc2cc3n(n2)CCC3)nc1-c1c[nH]c2c(NC(=O)CN3CC[C@H](Oc4ccncn4)C3)cccc12` [Example 15, (S)-N-(3-(2-((5,6-dihydro-4H-pyrrolo[1,2-b]pyrazol-2-yl)amino)-5-methylpyrimidin-4-yl)-1H-indol-7-yl)-2-(3-(pyrimidin-4-yloxy)pyrrolidin-1-yl)acetamide]: under 10 nM.
On to `Cc1cnc(Nc2cc(C)n(C)n2)nc1-c1c[nH]c2c(N3Cc4c(cccc4-c4ccc5c(c4)CNC5)C3=O)cccc12` [Example 430, 2-(3-(2-((1,5-dimethyl-1H-pyrazol-3-yl)amino)-5-methylpyrimidin-4-yl)-1H-indol-7-yl)-[4,5′-biisoindolin]-1-one], for which the 50% inhibitory concentration (IC50) was under 10 nM.
For the compound `Cc1cnc(Nc2cc(C)n(C)n2)nc1-c1c[nH]c2c(N3Cc4cccc(NCc5ccccc5)c4C3=O)cccc12` [Example 350, 7-(benzylamino)-2-(3-(2-((1,5-dimethyl-1H-pyrazol-3-yl)amino)-5-methylpyrimidin-4-yl)-1H-indol-7-yl)isoindolin-1-one], the half-maximal inhibitory concentration (IC50) is 100 to 1000 nM.
